# Legend:
# RAW264.7 [1] = experiment: Anti-inflammatory activity in LPS induced mouse RAW264.7 cells assessed as inhibition of NO production; assay type: functional, cell-based
# RAW264.7 [2] = experiment: Anti-inflammatory activity in LPS induced mouse RAW264.7 cells assessed as inhibition of NO production by MTT method; assay type: functional, cell-based
# HL-60 [3] = experiment: Cytotoxicity against human HL-60 cells assessed as inhibition of cell growth; assay type: functional, cell-based
# L1210 = experiment: Cytotoxicity against mouse L1210 cells assessed as reduction in cell viability; assay type: functional, cell-based
# KB = experiment: Cytotoxicity against human KB cells assessed as reduction in cell viability; assay type: functional, cell-based
# HepG2 = experiment: Cytotoxicity against human HepG2 cells incubated for 48 hrs by MTT based colorimetry assay; assay type: functional, cell-based; settings: HepG2, 48 h
# CCRF S-180 = experiment: Cytotoxicity against mouse CCRF S-180 cells incubated for 48 hrs by MTT based colorimetry assay; assay type: functional, cell-based; settings: CCRF S-180, 48 h
# MGC-803 = experiment: Cytotoxicity against human MGC-803 cells incubated for 48 hrs by MTT based colorimetry assay; assay type: functional, cell-based; settings: MGC-803, 48 h
# [4] = Cytotoxicity against human 6T-CEM cells; assay type: functional, cell-based
# RAW264.7 [5] = experiment: Anti-inflammatory activity in LPS induced mouse RAW264.7 cells assessed as inhibition of NO production pretreated for 1 hr followed by LPS stimulation and measured after 18 hrs by MTT assay; assay type: functional; settings: time 19 hrs, read-out: ED50 (the source's name)
# HeLa = experiment: Cytotoxicity against human HeLa cells incubated for 48 hrs by WST-8 assay; assay type: functional, cell-based
# HL-60 [6] = experiment: Cytotoxicity against human HL-60 cells incubated for 48 hrs by WST-8 assay; assay type: functional, cell-based; settings: HL-60, 48 h
# B16-F10 = experiment: Cytotoxicity against mouse B16-F10 cells incubated for 48 hrs by WST-8 assay; assay type: functional, cell-based; settings: B16-F10, 48 h
# HL-60 [7] = experiment: Cytotoxicity against human HL-60 cells; assay type: functional, cell-based
# U2OS = experiment: Synergistic cytotoxicity in human U2OS cells assessed as combination index in presence of doxorubicin; assay type: functional
# CCRF-CEM = experiment: Cytotoxicity against human CCRF-CEM cells; assay type: functional, cell-based
smiles,measurement,setting,value
C=C1C(=O)O[C@@H]2[C@@H]3[C@@H](C[C@@]4(O)[C@]3(O)CC[C@]43C(=O)C[C@H]4C(=C)CC[C@H]5C(=C)C(=O)O[C@@H]5[C@H]43)C(=C)CC[C@@H]12,IC50,RAW264.7 [1],2.41 µg/mL
C=C1CC[C@H]2C(=C)CC[C@@H]3[C@H](OC(=O)[C@]3(CC(C)O)C[C@@H]3C(=O)O[C@H]4[C@H]3CCC(=C)[C@@H]3CCC(=C)[C@@]34C)[C@@H]12 (some centres undefined),IC50,RAW264.7 [2],2.46 µM
C[C@H](O)CC[C@H]1[C@@H]2C[C@H]3[C@@H](C[C@]12C)OC(=O)C31CC2(CO1)C(=O)O[C@@H]1C[C@]3(C)[C@@H](CC[C@@H](C)O)[C@@H]3C[C@@H]12 (some centres undefined),IC50,HL-60 [3],8.7 µM
C=C1CCC[C@]2(C)CC[C@@H](C(C)C)[C@H](NC(=O)N(CC(=O)O)[C@@H]3[C@H]4C(=C)CCC[C@]4(C)CC[C@H]3C(C)C)[C@@H]12,IC50,L1210,2.6 µg/mL
same,IC50,KB,2.6 µg/mL
CC(=O)C1=C(Oc2oc3cc4c(c(C)c3c2C)[C@@H](C)CCC4)C[C@H]2CCC[C@H](C)[C@@]2(C)C1,IC50,HepG2,11.9 µM
same,IC50,CCRF S-180,11.9 µM
same,IC50,MGC-803,11.9 µM
C=C1C(=O)O[C@H]2C[C@H](C)C3=C(C[C@H]12)[C@@]1(C)OC(=O)[C@@H](c2ccc(C)c([C@H](C)CCCOC(C)=O)c2)C[C@H]1[C@H]3OC(C)=O,IC50,[4],4.4 µM
C=C(C)[C@@H]1c2oc3c(c2C(=O)C2=CCC[C@@H](C)[C@@]21C)C(=O)C[C@]1(C)C3=CCC[C@H]1C,EC50,RAW264.7 [5],23.6 µM
C=C1CCC[C@]2(C)CC[C@@H](C(C)C)[C@H](NC(=O)NC(C)(C)[C@@H]3C=C4[C@@H](C)CCC[C@]4(C)CC3)[C@@H]12,IC50,L1210,2.6 µg/mL
same,IC50,KB,2.6 µg/mL
C=C1C(=O)O[C@@H]2/C=C(\C)CC/C=C(/C(=O)OC)[C@H](OCC)[C@@H](OC(=O)[C@](C)(O)[C@H](C)OC(=O)/C3=C/CC/C(C)=C/[C@H]4OC(=O)C(=C)[C@@H]4[C@H](OC(=O)/C(C)=C\C)C3)[C@@H]12,IC50,HeLa,0.2 µM
same,IC50,HL-60 [6],0.2 µM
same,IC50,B16-F10,0.2 µM
C=C1C(=O)O[C@H]2C[C@H](C)C3=C(C[C@H]12)[C@]1(C)C[C@H]3C[C@@]12C(=O)O[C@@H]1C[C@H](C)C(CC[C@H](C)O)=CC[C@@H]12,IC50,HL-60 [7],4.9 µM
C=C1C(=O)O[C@H]2[C@H]1[C@H](OC(=O)[C@](C)(O)[C@H](C)OC(=O)/C1=C/CC/C(C)=C/[C@H]3OC(=O)C(=C)[C@@H]3[C@H](OC(=O)/C(C)=C\C)C1)[C@@H](OCC)/C(C(=O)OC)=C\CC[C@]1(C)O[C@@H]21,IC50,HeLa,0.2 µM
same,IC50,HL-60 [6],0.2 µM
same,IC50,B16-F10,0.2 µM
COC(=O)/C(C)=C1\C(=O)[C@H](O)[C@@]2(C)[C@@H]3C[C@@H]3[C@@]34CCC5=C6C3=C(C(=O)[C@H](O)[C@@]6(C)[C@@H]3C[C@H]53)[C@](C)(C(C)=O)[C@@H]1[C@@]24O,CI,U2OS,1.12
C=C1C(=O)O[C@H]2C[C@H](C)C3=C(C[C@H]12)[C@@]1(C)C[C@@H]3C[C@@]12C(=O)O[C@@H]1C[C@@]3(C)[C@@H](O)C[C@@H](O)C(=C)[C@@H]3C[C@@H]12,IC50,CCRF-CEM,0.14 µM
C=C1C(=O)O[C@H]2C[C@H](C)[C@@]34C[C@@H](C[C@@]35C(=O)O[C@@H]3C[C@@]6(C)[C@@H](O)C[C@@H](O)C(=C)[C@@H]6C[C@@H]35)C(C)=C4C[C@H]12,IC50,CCRF-CEM,0.14 µM
C=C1C(=O)O[C@H]2C[C@H](C)[C@@]34C[C@@H](C[C@@]35C(=O)O[C@H]3CC(=C)[C@H]6CC[C@@](C)(O)[C@@H]6C[C@@H]35)C(C)=C4C[C@H]12,IC50,CCRF-CEM,2.03 µM
C=C1CC[C@H]2C(=C)CC[C@@H]3[C@H](OC(=O)[C@]3(CC(C)=O)C[C@@H]3C(=O)O[C@@H]4/C=C(/C)CC/C=C(/C)CC[C@@H]34)[C@@H]12,IC50,RAW264.7 [2],1.88 µM

# — ChEMBL document CHEMBL5244250, “Natural sesquiterpenoid oligomers: A chemical perspective” (Eur J Med Chem, 2020)
